The target in the test is T1, tyrosinase from mushrooms.
T1 construct: gene PPO3; commercial native mushroom tyrosinase (Sigma-Aldrich), isoenzyme mixture
As to the kind of experiment: colorimetric diphenolase assay, absorbance at […] nm. Type of test: biochemical. As to conditions: L-DOPA substrate.

Values after ≈ are worked out from the molar mass of the structure shown.

As usually defined, the IC50 is the concentration needed to halve the response being measured. Read a high IC50 as a need for much substance. In turn, `O=C(O)CCCCCCCC(=O)O` [azelaic acid] had an IC50 of 1470 µg/mL (≈ 7.81 mM).

For the origin of these results see PMC11675283, “Anticholinesterase Activity and Bioactive Compound Profiling of Six Hop (Humulus lupulus L.) Varieties” (Foods, 2024).
